Measurements: the METLIN SMRT retention time set (Domingo-Almenara et al. 2019)

Assay: gradient 5% acetonitrile 3 min, to 50% in 2 min, to 85% in 15 min, held 3 min, 100 µL/min
Details: column: Zorbax Extend-C18 2.1 x 50 mm; eluents: water / acetonitrile, 0.1% formic acid
Outline: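 Retention times come from adduct peaks that were picked computationally and then checked by hand. The standards, pure and pooled in mixtures of ~100 molecules, were run on a Zorbax Extend-C18 column (2.1 × 50 mm, 1.8 μm) at 100 μL/min with water and acetonitrile, each with 0.1% formic acid. Detection was by quadrupole time-of-flight mass spectrometry in positive and negative ionization mode, with a dead volume of 40 μL and a dwell volume of 900 μL.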

RP-LC retention time | SMILES
776 s | O=C(c1[nH]nc2c1CCc1ccccc1-2)N1CCC(c2noc(-c3ccccn3)n2)C1 (stereo unspecified)
781 s | CCn1nccc1C(=O)N1CCN(c2cc(-c3ccc(Cl)cc3)[nH]n2)CC1
562 s | OC[C@@H]1CN(Cc2ccncc2F)C[C@H]1c1nc(C2CC2)no1
716 s | O=C(CCNc1c(-c2ccc(F)cc2)nc2cnccn12)NCc1ccc2c(c1)OCO2
931 s | CCN(CC)S(=O)(=O)c1ccc(NC(=O)N2CCC(C(=O)Nc3ccc(Cl)cc3)CC2)s1
831 s | Cc1ccc(NC(=O)C2CCN(S(=O)(=O)c3cc(C(=O)N4CCCC4)cs3)CC2)c(C)c1
759 s | O=C(NCc1ccc(F)cc1)C1CCCN(c2ncnc3c2nc2n3CCCCC2)C1 (stereo unspecified)
827 s | NC(=O)c1cc2c(s1)N(CC1CC1)CCCC2
653 s | COc1ccc(-c2cn3c(CC(=O)Nc4ccc(C)cn4)csc3n2)cc1OC
782 s | Cc1sc(-n2c(C)c3c(C)nnc(C)c3c2C)nc1-c1ccc(Br)cc1
547 s | CC(NC(=O)C1CCN(c2cncnc2N2CCOCC2)CC1)c1ccccn1 (stereo unspecified)
998 s | CC(C)Oc1cccc(NC(=O)C2CCN(S(C)(=O)=O)c3cc(Cl)ccc3O2)c1 (stereo unspecified)
843 s | N#Cc1ccc(C(=O)NCC(=O)N2CCCc3ccccc32)c(F)c1
1160 s | Cc1cc(C)n(C(=O)COc2ccc(Cl)cc2C)n1
922 s | O=C(Cc1cccn1-c1ccc(F)cc1)NCc1ccc(F)cc1
964 s | O=C(Cn1cccc(-c2nc(-c3ccc(F)cc3)no2)c1=O)Nc1ccc(Br)cc1F
653 s | Cc1nnc(C2CCCN(C(=O)COc3ccccc3)C2)s1 (stereo unspecified)
859 s | Cc1cc(NC(=O)c2ccc(-c3cncnc3)nc2)ccc1Br
672 s | CC(C)n1c(=O)c(NCCc2ccccc2)nc2ccncc21
731 s | CC(=O)N1CCC(C(=O)NCc2ccc(-c3nc(-c4cccs4)no3)s2)CC1
626 s | O=C(NCC1CCN(Cc2ccccc2)CC1)C(=O)Nc1ccc(OC(F)(F)F)cc1
812 s | Cc1ccc(C)c(NC(=O)Cn2ncc3c(c2=O)N(CC2CC2)C(=O)CS3)c1

RP-LC retention time | SMILES
770 s | Cc1ccc(-c2nc(N3CCOCC3)ncc2C(=O)O)cc1
1110 s | CCCOc1ccc(C(=O)Nc2nnc(SCc3nnc(-c4ccccc4C)o3)s2)cc1
722 s | COCC(=O)NC1CCC12CCN(C(=O)CC1CCCC1)CC2 (stereo unspecified)
777 s | NC(=O)C1CCN(S(=O)(=O)c2cc(-c3noc(C4CCC4)n3)cs2)CC1
667 s | CCC(=O)N1CCc2cc(N3CC(C(=O)NCc4ccco4)CC3=O)ccc21 (stereo unspecified)
1050 s | COc1ccc(-c2csc3c(=O)n(Cc4ccc(F)cc4)cnc23)cc1
671 s | O=c1c2cc(-c3ccccc3)nn2ccn1Cc1noc(CN2CCCCCC2)n1
1080 s | CC(C)CC(=O)Nc1ccc(S(=O)(=O)N2CCCC2c2nc(-c3ccccc3)no2)cc1 (stereo unspecified)
1010 s | CC1CCN(S(=O)(=O)c2ccc(-c3nnc(C(=O)NCc4ccc5c(c4)OCO5)o3)cc2)CC1
762 s | Cc1oc2ccn(Cc3ccc(F)cc3)c(=O)c2c1C(=O)NCCN(C)C1CCCCC1
704 s | COc1ccc(-c2cc(C(=O)N3CCOCC3)nn2C2CCS(=O)(=O)C2)cc1 (stereo unspecified)
967 s | COc1ccc([N+](=O)[O-])cc1NC(=O)Cc1cccc2ccccc12
800 s | O=C1NCCCn2nc(C3CCN(S(=O)(=O)c4ccc5c(c4)CCC5)CC3)cc21
821 s | COc1ccc(-c2cn3c(CC(=O)Nc4ccc(Br)cc4F)csc3n2)cc1OC
831 s | CCC(=O)N1CCc2c(C(=O)NC3CCCCC3)cccc21
1030 s | COc1cccc(-c2noc(Cn3c(=O)n(-c4ccc(C)cc4)c(=O)c4sccc43)n2)c1
708 s | Cc1ccccc1NC(=O)NCCc1nc2cccnc2n1C1CCCC1
712 s | CCc1ccccc1NC(=O)Nc1ccc2nnc(C)n2c1
1220 s | Cc1cc(C)n(-c2ccnc(N3CCN(c4ccccc4F)CC3)n2)n1
673 s | O=C(Cn1cnc2nc(N3CCCC(C(=O)NC4CC4)C3)sc2c1=O)Nc1ccc(F)cc1F (stereo unspecified)
743 s | Cc1ccc(-c2ncccc2CNS(=O)(=O)c2ccc(F)c(C)c2)cc1
575 s | COCCOC1CCC12CCN(C(=O)c1cnc[nH]1)CC2 (stereo unspecified)

RP-LC retention time | SMILES
783 s | CCCNC(=O)C1CCN(S(=O)(=O)c2cc(C(=O)N3CCCCCC3)cs2)CC1
809 s | c1cnc(N2CCN(c3nc4ccccc4s3)CC2)nc1
581 s | CCC(C)NC(=O)N1CCN(Cc2nc3cc(C(=O)N4CCCC4)ccc3n2C)CC1 (stereo unspecified)
675 s | Cc1ccc(-n2nc3c(N4CCN(C(=O)NC(C)C)CC4)nnc(C)c3c2C)cc1
670 s | CCN1CCN(C(=O)C2CCN(S(=O)(=O)c3c(C)nn(-c4ccc(Cl)cc4)c3C)CC2)CC1
934 s | O=C(C1COc2ccccc2O1)N1CCCn2nc(-c3cccs3)cc2C1 (stereo unspecified)
876 s | COc1ccc(C2CC(=O)N(c3cccc(Br)c3)C(=O)C2)cc1OC
950 s | COc1ccc(-c2noc(C3CC(=O)N(c4cc(Cl)ccc4OC)C3)n2)cc1 (stereo unspecified)
975 s | Cc1nc(-c2cn(C)c3ncccc23)sc1C(=O)Nc1ccc(Cl)cc1F
1120 s | CCN1C(=O)C2(CCN(S(=O)(=O)c3cccc(C(F)(F)F)c3)CC2)c2ccccc21
1020 s | O=C(c1cccn1Cc1noc(-c2ccc(Cl)cc2)n1)N1CCCC1
780 s | Cc1c(C)c2cc3c(=O)ccoc3c(C)c2oc1=O
1190 s | COc1ccc(C2Cn3nnc(-c4nc(-c5cccc(C)c5)no4)c3CO2)cc1 (stereo unspecified)
910 s | Cc1cc(C)c2c(n1)sc1c(=O)n(CC(=O)Nc3ccc(F)c(F)c3)c(C)nc12
1030 s | CC(C)N1C(=O)C(C)(C(=O)Nc2ccc(F)c(F)c2)Oc2cccnc21 (stereo unspecified)
1030 s | Cc1ccc(NC(=O)c2cccn2Cc2noc(C3CC3)n2)c(Cl)c1
651 s | Cn1nnc2cc(CNC(=O)c3ccccn3)ccc21
821 s | CCCN1C(=O)c2c(C(=O)NCc3cccc(F)c3)ncn2CC1(C)C(=O)NC1CCCC1 (stereo unspecified)
1120 s | COc1c(C(=O)NCc2ccc(C)o2)sc2cc(Cl)ccc12
726 s | Cc1cnc(C(=O)NC2C[C@H]3CC[C@@H](C2)N3S(=O)(=O)c2c(C)noc2C)cn1 (stereo partly specified)
806 s | Cc1cc2c(cc1S(=O)(=O)N1CCCC1C(=O)N(C)C1CCCCC1)OC(C)C(=O)N2 (stereo unspecified)
750 s | O=C(Nc1nnc(SCc2nnc(-c3ccc4c(c3)OCO4)o2)s1)C1CC1
